Test results as given in paper PMC6733907, “Structural basis for activation of a diguanylate cyclase required for bacterial predation in Bdellovibrio” (Nature Communications, 2019).
Values joined by “and” are separate entries in the source; they are usually repeats but may differ in a detail not shown here. Identical values can stand only once.

Key:
[1] = target: T1, GGDEF-only construct of DgcB (Bdellovibrio bacteriovorus, UniProt Q6MPU8); assay: co-purification of c-di-GMP with the protein; assay type: binding; conditions: I-site
T1 construct: gene Bd0742; GGDEF domain only, aa 148-310 (own numbering), C-terminal thrombin-cleavable 8xHis tag, E. coli BL21 lambda DE3
T1 sequence (Q6MPU8 158-320): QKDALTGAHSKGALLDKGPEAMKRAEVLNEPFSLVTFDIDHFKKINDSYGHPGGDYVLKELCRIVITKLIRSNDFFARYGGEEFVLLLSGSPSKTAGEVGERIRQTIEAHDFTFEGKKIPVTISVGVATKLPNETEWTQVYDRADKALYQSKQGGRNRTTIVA

DgcB (full-length) = target: T2, DgcB (full-length) (Bdellovibrio bacteriovorus, UniProt Q6MPU8); assay: X-ray crystal structure, […] Å, co-purified ligand; assay type: binding; conditions: I-site (RxxD: R218, D221) of both monomers; two c-di-GMP per dimer; product, feedback inhibitor
T2 construct: gene Bd0742; full-length aa 1-310 (own numbering), C-terminal thrombin-cleavable 8xHis tag, E. coli BL21 lambda DE3; dimer with c-di-GMP
T2 sequence (Q6MPU8 11-320): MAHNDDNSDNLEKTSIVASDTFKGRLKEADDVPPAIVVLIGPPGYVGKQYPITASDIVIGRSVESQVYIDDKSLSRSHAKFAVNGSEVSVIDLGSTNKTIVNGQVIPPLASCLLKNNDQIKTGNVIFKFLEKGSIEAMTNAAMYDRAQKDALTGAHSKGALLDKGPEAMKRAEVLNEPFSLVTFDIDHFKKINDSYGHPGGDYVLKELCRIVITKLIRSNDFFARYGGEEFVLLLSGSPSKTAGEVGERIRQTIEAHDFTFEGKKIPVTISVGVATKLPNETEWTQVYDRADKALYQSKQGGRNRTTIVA

[2] = target: DgcB S15C-S73C-R218A (disulphide-stapled double cysteine mutant), full length (Bdellovibrio bacteriovorus HD100); assay: SEC; non-reducing gel-filtration (buffer without DTT) after overnight incubation with 5 mM oxidised glutathione, sample at 50 mg/ml; sizes calibrated to known standards

Nc1nc2c(ncn2[C@@H]2O[C@@H]3COP(=O)(O)O[C@H]4[C@@H](O)[C@H](n5cnc6c(=O)[nH]c(N)nc65)O[C@@H]4COP(=O)(O)O[C@H]3[C@H]2O)c(=O)[nH]1 [c-di-GMP]
co-purification of c-di-GMP with the protein [1]: the GGDEF-only construct purifies with a small amount of c-di-GMP at the I-site
X-ray crystal structure, 1.79 Å, co-purified ligand (DgcB (full-length)): The dimer is stabilized by two molecules of c-di-GMP (classically intercalating via their planar bases)

DgcB S15C-S73C-R218A (disulphide-stapled double cysteine mutant), full length (enzyme)
stoichiometry N [2]: 4 and 2
